Consider 104 compounds from PubChem BioAssay AID849 (SRMLSC, 2007).

SMILES strings stand for the structures. Active and inactive are the calls of the source. No rule for the calls is given here.

As usually defined, the IC50 is the concentration at which inhibition is half-maximal.

In this assay the test system is Saccharomyces cerevisiae lifespan shortening, growth inhibition. Briefly: yeast lifespan shortening compounds, dose response (AID 849).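 Also: yeast growth read as optical density after two days at 30 degrees C.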
Take `O=c1[nH]c2ccccc2c2nc3ccccn3c12`: the IC50 is 40 µM.
For the compound `CC(Oc1ccc2ccccc2c1)C(=O)NNC(=S)NC(=O)c1ccco1` (centres undefined), the IC50 is 17.7 µM.
As for `Cc1cccc(N=Nc2ccc(O)c3ncccc23)c1`, the figure is 34.8 µM; as for `Oc1cccc2ccc(/C=C/c3cccs3)nc12`, 37.5 µM; as for `COc1ccc(C(=O)C(C)(C)NO)cc1`, 33.7 µM.
As for `CCCCC(=O)NNC(=S)NC(=O)CCC`, the figure is 32.3 µM.
As for `CCC(=O)c1c(O)n(C2CCCCCC2)c(=O)[nH]c1=O`, the figure is 23.4 µM; as for `N#Cc1ccccc1NC(=O)c1ccc2c(Cl)c3c(nc2c1)CCCC3`, > 100 µM (inactive).
As for `Cc1cccc(NC(=O)CC2SC(=O)N(c3ccccc3)C2=O)c1` (centres undefined), the IC50 was > 100 µM (inactive).
As for `CC1=C(C)/C(=N\OS(=O)(=O)c2ccccc2)C=CC1=O`, the figure is 30.3 µM; as for `O=C(CSc1cccc[n+]1[O-])c1cc2ccccc2o1`, 2.97 µM.
`CCC(=O)NC(c1ccc(C)cc1)c1cc([N+](=O)[O-])c2cccnc2c1O` (centres undefined): the IC50 was 25.3 µM.
In the case of `O=C(/C(=N/N=C/c1ccc(O)c(O)c1O)c1ccccc1)c1ccccc1` it was 25.8 µM; in that of `CC1(CCc2ccccc2)NC(=S)N(c2ccccc2)N1` (centres undefined), 14.1 µM; in that of `O=C1c2ccccc2C(=O)C1c1ccc2ccccc2n1`, > 100 µM (inactive).
For the compound `COc1ccc(C(=O)NC(=S)NNC(=O)c2cnccn2)cc1OC`, the IC50 is 20.5 µM.
In the case of `COc1ccc(C(=O)/C=C/Nc2ccc(C)cn2)cc1OC` it was > 100 µM (inactive); in that of `CC1CCc2c(sc3nc(CN4CCOCC4)nc(Sc4ccccc4)c23)C1` (centres undefined), > 100 µM (inactive); in that of `Cc1ccc(C(=O)c2c(C)oc3c2C(=O)C(=O)c2ccccc2-3)cc1`, 48.1 µM.
In the case of `Cc1cccc(/C=C/C(=O)c2cc(Br)ccc(=O)c2O)c1` it was 8.97 µM; in that of `COc1cc(/C=N/N(C)c2ccccc2)cc(Cl)c1O`, > 100 µM (inactive); in that of `O=C(OCn1ncc(Cl)c(Cl)c1=O)c1ccc(F)cc1`, > 100 µM (inactive).
As for `Cc1nn(-c2cccc(C(F)(F)F)c2)c(Cl)c1/C=N/Nc1cccc(C(=O)O)c1`, the figure is 39.8 µM.
Consider `COc1ccc(NC(=O)C2CCCN2S(=O)(=O)c2cccc3cccnc23)c(OC)c1` (centres undefined), for which the 50% inhibitory concentration (IC50) was 40.5 µM.
As for `Cc1[nH]n(-c2ccccc2)c(=O)c1/C=N/Nc1nncc(-c2ccccc2)n1`, the figure is 19.3 µM; as for `O=C(OCn1ncc(Cl)c(Cl)c1=O)c1ccccc1Cl`, 20.7 µM.
In the case of `NC(N)=N/N=C/c1ccc(OCc2ccc(Cl)cc2)cc1` it was 48.4 µM; in that of `Cc1ccc2nc3c(nc2c1)-c1ccccc1C3=O`, 30.3 µM.
In the case of `CCC1C(=O)N=C(SCC(=O)Nc2ccccc2)NC1=O` (centres undefined) it was > 100 µM (inactive).
With `Cc1ccc(-c2nn(C(C)(C)C)c3ncnc(N)c23)cc1`, the IC50 is 1.72 µM.
As for `CN1CCN(C2=Cc3ccc(Cl)cc3Sc3ccc(F)cc32)CC1`, the figure is 30 µM.
For the compound `Cc1cccc(OCCCOc2cccc3cccnc23)c1C`, the IC50 was 26.5 µM.
As for `Cc1nn2c(-c3ccncc3)nnc2c2ccccc12`, the figure is 6.35 µM; as for `Nc1[nH]c(=O)ncc1F`, 11.8 µM.
As for `O=[N+]([O-])c1cc(CN2CCCC2)c2cccnc2c1O`, the figure is > 100 µM (inactive).
Take `Cc1ccccc1C(=O)O/N=C/c1c(N2CCOCC2)n(C)c2ccccc12`: the IC50 was 49.9 µM.
As for `CCc1ccc2c(c1)C1(NN=C(c3ccccc3)S1)C(=O)N2` (centres undefined), the figure is 24.6 µM; as for `CCOC(=O)c1cnc(-n2nc(C)cc2C)nc1NC1CCCCC1`, 20 µM.
As for `Oc1c(C(Nc2nc3ccccc3s2)c2ccco2)ccc2cccnc12` (centres undefined), the figure is > 100 µM (inactive).
As for `O=c1oc2ccccc2cc1-c1cn2cccnc2n1`, the figure is > 100 µM (inactive); as for `Oc1cc(-c2ccccc2)c2ccccc2c1`, 26 µM; as for `Oc1ccc(/C=C/c2nc(-c3ccccc3O)n(-c3ccccc3)n2)cc1`, > 100 µM (inactive).
For `CCn1c2ccc(C)cc2c2nc3cc(C(=O)O)ccc3nc21`, the IC50 is 9.6 µM.
As for `Oc1ccccc1NCC(O)Cn1ccc2ccccc21` (centres undefined), the figure is > 100 µM (inactive).
Consider `COc1ccccc1OCCCc1c(C)n[nH]c1C`, for which the IC50 is 8.78 µM.
For the compound `OC(COc1ccc2ccccc2c1Br)Cn1cnc(-c2ccccc2)c1` (centres undefined), the IC50 is 49.3 µM.
Regarding `CCCCCCCCCCCCCCCC[n+]1ccc(/C=N/O)cc1`, the IC50 is 1.54 µM.
Turning to `Oc1ccc(-c2csc(-c3ccccc3)n2)cc1O`, the IC50 was 27.5 µM.
Turning to `O=c1cc(-c2ccccc2)[nH]n1-c1nc2ccccc2[nH]1`, the IC50 was 12.2 µM.
As for `CC1=NOC(=O)/C1=C/c1ccc(-c2ccc(Cl)cc2)o1`, the IC50 was > 100 µM (inactive).
As for `O=C(NC1CCCCC1)Sc1ccc(Cl)cc1`, the figure is > 100 µM (inactive).
In the case of `CN1C(=O)c2cccc3c(Cl)ccc(c23)C1=O` it was > 100 µM (inactive).
`Nc1c(Cl)ncnc1N/N=C/c1ccccn1`: the IC50 was 11.2 µM.
Regarding `CCC(C)NC(=O)C1CCN(S(=O)(=O)c2cccc3cccnc23)CC1` (centres undefined), the IC50 was > 100 µM (inactive).
In the case of `NNC(=O)c1ccc(COc2cccc3ccccc23)cc1` it was 30.3 µM; in that of `CCN1/C(=C/C=C/C=C/c2sc3ccccc3[n+]2CC)Sc2ccccc21`, 21.3 µM; in that of `COc1ccc2c(c1)c1nnc(SC)nc1n2C`, 44.1 µM.
As to `CCOC(=O)N1CCN(C(=O)Cn2nc(C)c3sc4ccccc4c3c2=O)CC1`, the IC50 was > 100 µM (inactive).
As for `CCc1ccc2c(c1)C1(NN=C(c3ccc(C)cc3)S1)C(=O)N2` (centres undefined), the figure is 23.8 µM; as for `Cc1nc(Nc2ccc(Cl)c(Cl)c2)sc1C(=O)Nc1ccccc1`, > 100 µM (inactive).
In the case of `C=CCSC(=C(C#N)C#N)c1cc2c([nH]1)CCCC2` it was > 100 µM (inactive).
In the case of `Cn1c(C(=O)N2CCC(C(=O)N3CCN(Cc4ccc5c(c4)OCO5)CC3)CC2)cc2sccc21` it was > 100 µM (inactive); in that of `COc1ccc(/C(C)=N/NC(=O)c2ccc(CSc3cccc4cccnc34)cc2)cc1OC`, > 100 µM (inactive).
For `Oc1c(Br)cc(Br)cc1Oc1ccc(Br)cc1Br`, the IC50 was > 100 µM (inactive).
As for `Cc1cc(Cl)ccc1N=c1ssnc1Cl`, the figure is > 100 µM (inactive); as for `Clc1cc2nc3ccccn3c2cc1Cl`, 51.5 µM.
As to `CCN1/C(=C/c2ccc3cccc(C)c3[n+]2CC)Sc2ccccc21`, the IC50 is 9.8 µM.
In the case of `N/C(Cc1ccc(Cl)cc1Cl)=N\OC(=O)c1cccs1`, the IC50 is 0.78 µM.
As to `O=C(O)Cc1ccc2sc(-c3ccccc3)nc2c1`, the IC50 is > 100 µM (inactive).
As for `Cc1ccc(-c2nc(N)sc2-c2ccccc2)cc1C`, the figure is > 100 µM (inactive).
On to `CCOC(=O)c1c(/N=C/c2cccc([N+](=O)[O-])c2O)sc(C)c1C`, for which the half-inhibitory concentration (IC50) is 18.5 µM.
As for `CC(Oc1ccc(Cl)cc1Cl)C(=O)NC1=NN(c2ccccc2)C(=O)C1` (centres undefined), the figure is 9.36 µM; as for `Cn1c(=O)c2nc(-c3ccccc3)oc2c2ccccc21`, > 100 µM (inactive).
As for `CCCOC(=O)c1ccc(Oc2cn[nH]c2-c2ccc(OCC)cc2O)cc1`, the figure is > 100 µM (inactive); as for `Cc1nc2c(F)c(F)c(C(F)(F)F)c(F)c2[nH]1`, > 100 µM (inactive); as for `COc1cccc(-n2nnnc2S(C)(=O)=O)c1`, 9.54 µM.
In the case of `Oc1c(Cl)cc(Cl)cc1Sc1cc(Cl)cc(Cl)c1O` it was 25.4 µM; in that of `O=C1c2ccccc2NC(c2ccc(-c3ccc(Br)cc3)o2)N1O` (centres undefined), 25 µM; in that of `Clc1ccc(N=c2ssnc2Cl)cc1`, 25.6 µM.
As to `O=C1NC(c2ccccn2)Nc2sc3c(c21)CCC3` (centres undefined), the IC50 is > 100 µM (inactive).
Take `CCCCCCCCCCCCCCCC(O)C(N)CO` (centres undefined): the IC50 is 33.4 µM.
In the case of `Oc1c(I)cc(Cl)c2cccnc12` it was 23 µM; in that of `Fc1ccc(-c2ccc(-c3nn4c(-c5ccco5)nnc4s3)o2)cc1`, > 100 µM (inactive); in that of `Cc1c(C(=O)O)cccc1-c1ccc(/C=N/Nc2ccc(Br)cc2)o1`, > 100 µM (inactive).
Turning to `CCCCN=C(NNc1ccc(Br)cc1)C(=O)OCC`, the IC50 is 5.3 µM.
As for `COc1ccccc1NC(=O)Cc1noc(CSc2cccc[n+]2[O-])n1`, the figure is 23.2 µM; as for `CC(N=Cc1cccc(O)c1O)c1ccccc1` (centres undefined), 9.02 µM.
In the case of `CCN(CC)S(=O)(=O)c1ccc(NC(=O)CSc2cccc[n+]2[O-])cc1` it was 24.2 µM; in that of `CCOCCCNC(=O)c1ccc(Br)cc1`, > 100 µM (inactive); in that of `Cn1cccc1Cc1nnc(SCC(=O)Nc2nccs2)n1CCc1ccccc1`, > 100 µM (inactive).
As to `CCCn1c(C)cc(C(=O)COC(=O)c2ccc[nH]c2=O)c1C`, the half-maximal inhibitory concentration (IC50) was 35.6 µM.
In the case of `COc1ccc(/C=C/C(=O)c2cc(Br)ccc(=O)c2O)cc1` it was 12.6 µM.
In the case of `CC1CCN(c2nc(/C=C/c3ccccc3)nc3ccccc23)CC1` it was 24.7 µM; in that of `Cc1ccc(N2CCOCC2)c2c1C(=O)c1ccccc1C2=O`, 9.55 µM.
As for `S=C(NCc1ccc(Cl)cc1)NC12CC3CC(CC(C3)C1)C2`, the figure is > 100 µM (inactive).
`Cc1ccc(NC(=O)ON=C2CCCC2)cc1`: the IC50 is 9.19 µM.
For `CCSc1nc(N)nc(-c2cccs2)c1C#N`, the IC50 was 24.8 µM.
In the case of `N/C(=N\OC(=O)c1ccc(Cl)cc1Cl)c1ccccc1` it was > 100 µM (inactive).
With `CC(C)(C)N/N=C/c1cc(Cl)cc([N+](=O)[O-])c1O`, the IC50 was 12.9 µM.
As for `CC(C)(Oc1ccc(Cl)cc1)C(=O)NC1=NN(c2ccccc2)C(=O)C1`, the IC50 is 18.2 µM.
In the case of `CCOC(=O)c1cnc(-n2nc(C)cc2C)nc1NNc1cc(C)nc(-c2ccccc2)n1` it was > 100 µM (inactive); in that of `COc1ccc(OC)c(C2CC(=O)N3CN(c4cccc(Cl)c4)CSC3=C2C#N)c1` (centres undefined), > 100 µM (inactive); in that of `O=C(O)c1cc2c(s1)-c1ccccc1OC2`, 42.2 µM.
As for `c1cnc2c(c1)ccc1cccnc12`, the figure is 13.3 µM.
